Results from US20200060276A1, “THIAZOLE COMPOUND AND HERBICIDE” (OAT Agrio Co., Ltd., priority 2017, published 2020).

Tests used:
Type in all cases: in vivo
[1] = test system: Echinochloa crus-galli (L.) P. Beauv. var. formosensis Ohwi; experiment: Test for Herbicidal Effect in Flooding Treatment (#1), ECHDG; conditions: flooding treatment #1
Outline: (§1)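 Flooded soil in cups was seeded 24 h after flooding, then treated with compound in acetone diluted with Tween 80-containing water, dropped onto the water surface at 2 kg/ha. After growth in a glasshouse, growth inhibition was scored visually on day 21 on a 0 (<10%) to 5 (≥90% or complete withering) scale.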

[2] = test system: Echinochloa crus-galli (L.) P. Beauv. var. formosensis Ohwi; experiment: Test for Herbicidal Effect in Flooding Treatment (#2), ECHDG at 2-2.5 leaf stage; conditions: flooding treatment #2, 2-2.5 leaf stage
Outline: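 Flooded muddy soil was seeded with the weed, and at 2–2.5 leaf stage compound in acetone/Tween 80 water was dropped on the water surface at 0.2 kg/ha. Plants were kept in a glasshouse and scored visually on day 21 from 0 (<10% growth inhibition) to 5 (≥90% or complete withering).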

Scirpus juncoides = experiment: Test for Herbicidal Effect in Flooding Treatment (#1), SCIJU; conditions: flooding treatment #1
Outline: as §1

Monochoria vaginalis = experiment: Test for Herbicidal Effect in Flooding Treatment (#1), MONVA; conditions: flooding treatment #1
Method: (#1) Test for Herbicidal Effect in Flooding Treatment: Styrol cups each having an opening diameter of 8 cm (about 52 cm^2) were respectively filled with soil (45 ml) which had been passed through a sieve (2 mm). Water (about 115 ml) was mixed with the soil such that the soil was flooded. After the soil stood still for 24 hours, Monochoria vaginalis, Echinochloa crus-galli (L.) P. Beauv. var. formosensis Ohwi, Cyperus difformis (umbrella sedge), and Scirpus juncoides were seeded. Each of the compounds of the present invention was dissolved in acetone, and the obtained product was then diluted with water containing Tween 80®. Each of the resultant chemical solutions was dropped on the entire surface of an associated one of treatment sections, so that each section was treated with 1 ml of the respective chemical solution (a dose of 2 kg/ha). After the treatment, the plants were grown in a glasshouse. On day 21, a survey was conducted on the herbicidal activity by visual observation, and evaluation was made according to the following criteria. 0: Growth inhibition effect is less than 10%. 1: Growth inhibition effect is equal to or greater than 10%, and less than 30%. 2; Growth inhibition effect is equal to or greater than 30%, and less than 50%. 3: Growth inhibition effect equal to or greater than 50%, and less than 70%. 4: Growth inhibition effect is equal to or greater than 70%, and less than 90%. 5: Growth inhibition effect is equal to or greater than 90%, or complete withering is achieved. ECHDG=Echinochloa crus-galli (L.) P. Beauv. var. formosensis Ohwi, MONVA=Monochoria vaginalis, SCIJU=Scirpus juncoides, CYMIC=Cyperus microiria.

Structure (SMILES)	ECHDG #1 herbicidal effect (growth inhibition rating 0-5) [1]	ECHDG (2-2.5L) #2 herbicidal effect (growth inhibition rating 0-5) [2]	SCIJU #1 herbicidal effect (growth inhibition rating 0-5) (Scirpus juncoides)	MONVA #1 herbicidal effect (growth inhibition rating 0-5) (Monochoria vaginalis)
COc1cccc(Cl)c1C[S+]([O-])c1ncc(Cl)s1 (stereo not drawn) [Compound 1B-1]	5 (Growth inhibition effect is equal to or greater than 90%, or complete withering is achieved)	4 (Growth inhibition effect is equal to or greater than 70%, and less than 90%)	4 (Growth inhibition effect is equal to or greater than 70%, and less than 90%)	3 (Growth inhibition effect equal to or greater than 50%, and less than 70%)
[O-][S+](Cc1ccccc1OC(F)F)c1ncc(Cl)s1 (stereo not drawn) [Compound 1B-2]	5 (Growth inhibition effect is equal to or greater than 90%, or complete withering is achieved)	5 (Growth inhibition effect is equal to or greater than 90%, or complete withering is achieved)	5 (Growth inhibition effect is equal to or greater than 90%, or complete withering is achieved)	5 (Growth inhibition effect is equal to or greater than 90%, or complete withering is achieved)
[O-][S+](Cc1c(F)cccc1OC(F)F)c1ncc(Cl)s1 (stereo not drawn) [Compound 1B-3]	5 (Growth inhibition effect is equal to or greater than 90%, or complete withering is achieved)	5 (Growth inhibition effect is equal to or greater than 90%, or complete withering is achieved)	5 (Growth inhibition effect is equal to or greater than 90%, or complete withering is achieved)	5 (Growth inhibition effect is equal to or greater than 90%, or complete withering is achieved)
[O-][S+](Cc1c(OCC(F)F)cccc1C(F)(F)F)c1ncc(Cl)s1 (stereo not drawn) [Compound 1B-8]	5 (Growth inhibition effect is equal to or greater than 90%, or complete withering is achieved)	5 (Growth inhibition effect is equal to or greater than 90%, or complete withering is achieved)	5 (Growth inhibition effect is equal to or greater than 90%, or complete withering is achieved)	5 (Growth inhibition effect is equal to or greater than 90%, or complete withering is achieved)
[O-][S+](Cc1c(Cl)cccc1OCC(F)(F)F)c1ncc(Cl)s1 (stereo not drawn) [Compound 1B-10]	5 (Growth inhibition effect is equal to or greater than 90%, or complete withering is achieved)	5 (Growth inhibition effect is equal to or greater than 90%, or complete withering is achieved)	5 (Growth inhibition effect is equal to or greater than 90%, or complete withering is achieved)	5 (Growth inhibition effect is equal to or greater than 90%, or complete withering is achieved)
[O-][S+](Cc1c(F)cccc1OCC(F)(F)C(F)F)c1ncc(Cl)s1 (stereo not drawn) [Compound 1B-12]	5 (Growth inhibition effect is equal to or greater than 90%, or complete withering is achieved)	5 (Growth inhibition effect is equal to or greater than 90%, or complete withering is achieved)	5 (Growth inhibition effect is equal to or greater than 90%, or complete withering is achieved)	5 (Growth inhibition effect is equal to or greater than 90%, or complete withering is achieved)
[O-][S+](Cc1c(F)cccc1OCC(F)(F)C(F)F)c1ncc(Cl)s1 (stereo not drawn) [Compound 1B-13]	5 (Growth inhibition effect is equal to or greater than 90%, or complete withering is achieved)	2 (Growth inhibition effect is equal to or greater than 30%, and less than 50%)	5 (Growth inhibition effect is equal to or greater than 90%, or complete withering is achieved)	5 (Growth inhibition effect is equal to or greater than 90%, or complete withering is achieved)
CC(c1c(F)cccc1OC(F)F)[S+]([O-])c1ncc(Cl)s1 (stereo not drawn) [Compound 1B-16]	5 (Growth inhibition effect is equal to or greater than 90%, or complete withering is achieved)	3 (Growth inhibition effect equal to or greater than 50%, and less than 70%)	5 (Growth inhibition effect is equal to or greater than 90%, or complete withering is achieved)	5 (Growth inhibition effect is equal to or greater than 90%, or complete withering is achieved)
COc1cccc(Cl)c1C[S+]([O-])c1ncc(Br)s1 (stereo not drawn) [Compound 1B-17]	5 (Growth inhibition effect is equal to or greater than 90%, or complete withering is achieved)	5 (Growth inhibition effect is equal to or greater than 90%, or complete withering is achieved)	5 (Growth inhibition effect is equal to or greater than 90%, or complete withering is achieved)	3 (Growth inhibition effect equal to or greater than 50%, and less than 70%)
[O-][S+](Cc1c(F)cccc1OC(F)F)c1ncc(Br)s1 (stereo not drawn) [Compound 1B-19]	5 (Growth inhibition effect is equal to or greater than 90%, or complete withering is achieved)	5 (Growth inhibition effect is equal to or greater than 90%, or complete withering is achieved)	5 (Growth inhibition effect is equal to or greater than 90%, or complete withering is achieved)	5 (Growth inhibition effect is equal to or greater than 90%, or complete withering is achieved)
[O-][S+](Cc1c(Cl)cccc1OC(F)F)c1ncc(Br)s1 (stereo not drawn) [Compound 1B-20]	5 (Growth inhibition effect is equal to or greater than 90%, or complete withering is achieved)	5 (Growth inhibition effect is equal to or greater than 90%, or complete withering is achieved)	5 (Growth inhibition effect is equal to or greater than 90%, or complete withering is achieved)	5 (Growth inhibition effect is equal to or greater than 90%, or complete withering is achieved)
[O-][S+](Cc1c(Cl)cccc1OC(F)(F)C(F)(F)F)c1ncc(Br)s1 (stereo not drawn) [Compound 1B-24]	5 (Growth inhibition effect is equal to or greater than 90%, or complete withering is achieved)	5 (Growth inhibition effect is equal to or greater than 90%, or complete withering is achieved)	5 (Growth inhibition effect is equal to or greater than 90%, or complete withering is achieved)	5 (Growth inhibition effect is equal to or greater than 90%, or complete withering is achieved)
